The test system of one data set is Russet Norkotah potatoes. The experiment in a line: Sprout inhibition of stored Russet Norkotah potatoes (first trial, 54 degrees F.). In kind it is in vivo, Solanum tuberosum. The text has this: (§1) The storage system was designed to duplicate a large commercial storage facility in miniature. Drums containing 150-200 pounds of potatoes were sealed and housed in a building in which temperature was maintained throughout the testing period at 54 degrees F. for the first summer trial with Norkotah potatoes and 46 degrees F. for the Russet Burbank potatoes in the second trial. During both trials the humidity was maintained at […]. Formed in each drum is an inlet in which untreated air (ventilation air) was introduced under a perforated floor to the drum. The ventilation air moves through the pile of potatoes and is exhausted from the top of the drum to the outside of the building.
(§2) This storage ventilation was shut down for a 24 hour duration during and directly after the treatment of the chemicals. Then it is maintained for the duration of the trial, with ventilation air forced through the drums at a rate of 0.5 cubic feet per minute on a three-hour on and a three-hour off schedule.
(§3) In the spray application technique the formulations were mixed with water and sprayed on the newly harvested tubers at a rate of 5 and 10 parts per million (weight of the active to weight of the potatoes) mixed in a water carrier. The mixture was applied at 1 quart per ton of potatoes. The spray was applied via a hand held spray gun propelled with compressed air as the tubers were rotating in a cement mixer drum. This insured that all surface area is coated with the active ingredient.
All of the treatments in the reported test on Russet Norkotah used this technique with the exception of Untreated and CIPC A (CIPC 98A) that was thermal fogged.
(§4) The custom thermal fogger's heat source was an electric hot plate set at 500 degrees F. This temperature is monitored throughout the application with a thermal couple that is inserted in a cavity just below the surface where the chemical is placed. A chamber was attached to the hot plate. A fan was mounted to the top of the chamber. The fogger was attached to the storage container with flexible tubing.
(§5) The fog was delivered to each drum through separate ports. Through the bottom port of the storage drum a perforated stinger was installed that runs the length of the drum. Flexible tubing delivered the fog air mixture from the fogger. The fog air mixture was returned to the thermal fogger through a second flexible tubing that was attached from the top of the storage drum to the bottom of the thermal fogger. The air fog mixture was re-circulated through the system for five minutes.
Russet Norkotah potatoes were selected for the first trial for their short natural dormancy and aggressive sprouting.
(§6) The potatoes were monitored for sprout activity on a regular basis after treatment. When early sprout activity was observed the potatoes were first evaluated. Then at approximately 30 day intervals, 60 tubers were randomly selected from each treatment. Each tuber was rated for the length of the longest sprout on each tuber. The scale used for the rating system as is follows: • 0—Not Peeping=no sprout or swelling of eye tissue evident. • 1—Peeping=swelling of eye tissue up to a sprout length of 3 mm • 2—sprout length from 3 mm to 1 cm. • 3—sprout length from 1 cm to 3 cm. • 4—sprout length from 3 cm to 5 cm. • 5—sprout length from 5 cm and longer
(§7) Results of each set of 60 tubers were recorded into 6 subsets of 10 tubers each (replicates). Each set is summarized as a percent. The data is also summarized into AVERAGE SPROUT LENGTH and PERCENT OK RE: FRESHPCK (Fresh pack).
(§8) The PERCENT OK RE: FRESHPCK is the percent of the tubers that are NOT PEEPING and PEEPING categories combined together.
(§9) The MCPP spray was a MCPP potassium salt providing 2.5 pounds active ingredient per gallon of inert ingredients (water/coformulants). […]

For the next data set, the system named is Russet Burbank potatoes. The experiment in a line: Sprout inhibition of stored Russet Burbank potatoes (second trial, 46 degrees F.), thermal fogs and liquid sprays. It counts as in vivo, Solanum tuberosum.
From the text: as §1, §2, §3, §4, §5
Russet Burbank potatoes were selected for the second trial. The Russet Burbank is noted for its long term storability and is one of the most popular cultivars used for storage as it can be used as both a fresh pack potato and also has very desirable processing qualities.
as §6, §7, §8, §9

Data set [1] in a line: Concentration analysis: amounts recovered on the whole potato. Conditions: thermal fog application. The text has this:
Much better results were obtained with the spray applications compared to the thermal fog applications of MCPP, believed to be due to the fact that we established a higher concentration on the tuber via spray.
For example, for spray and thermal fog application, amounts recovered on the whole potato approximately four months later were as follows: MCPP10 ppm applied via thermal fog=0.038 ppm MCPP10 ppm applied via liquid spray=6.3 ppm

Setting [2] is: 5 ppm Fog, 132 days after harvest.
Where [3] appears, read: 5 ppm Fog, 161 days after harvest.
The mark [4] stands for this setting: 5 ppm Fog, 191 days after harvest.
[5] abbreviates: 5 ppm Fog, 223 days after harvest.
Where [6] appears, read: 5 ppm Fog, 252 days after harvest.
The mark [7] stands for this setting: 5 ppm Fog, 283 days after harvest.
Setting [8] is: 5 ppm Spray, 132 days after harvest.
Setting [9] is: 5 ppm Spray, 161 days after harvest.
Where [10] appears, read: 5 ppm Spray, 191 days after harvest.
Setting [11] is: 5 ppm Spray, 223 days after harvest.
Setting [12] is: 5 ppm Spray, 252 days after harvest.
Where [13] appears, read: 5 ppm Spray, 283 days after harvest.
The mark [14] stands for this setting: 11 ppm Fog, 132 days after harvest.
[15] abbreviates: 11 ppm Fog, 161 days after harvest.
Where [16] appears, read: 11 ppm Fog, 191 days after harvest.
[17] abbreviates: 11 ppm Fog, 223 days after harvest.
The mark [18] stands for this setting: 11 ppm Fog, 252 days after harvest.
Setting [19] is: 11 ppm Fog, 283 days after harvest.

Regarding `O=C(O)CCCOc1ccc(Cl)cc1Cl` [2,4 DB], the “% OK for Fresh Pack Dormant + sprout up to 3 mm” value with Russet Norkotah potatoes (5 ppm Spray, 53 DAH) is 81.7%; with Russet Norkotah potatoes (5 ppm Spray, 85 DAH), 3.3%; in the data set on Russet Norkotah potatoes (5 ppm Spray, 107 DAH) it was 0.0%; with Russet Norkotah potatoes (10 ppm Spray, 53 DAH), 91.7%; in the data set on Russet Norkotah potatoes (10 ppm Spray, 85 DAH) it was 11.7%; in the data set with Russet Norkotah potatoes (10 ppm Spray, 107 DAH) it was 0.0%.

As for `Cc1cc(Cl)ccc1OC(C)C(=O)O` (stereo not shown) [MCPP, 2-(4-Chloro-2-methylphenoxy)propanoic acid], the “% OK For Fresh Pack Dormant + sprout up to 3 mm” value in the data set with Russet Burbank potatoes (setting [2]) came to 93.3%; with Russet Burbank potatoes (setting [3]) it was 3.3%; in the data set with Russet Burbank potatoes (setting [4]) it was 0.0%; with Russet Burbank potatoes (setting [5]), 0.0%; with Russet Burbank potatoes (setting [6]), 0.0%; in the data set with Russet Burbank potatoes (setting [7]), 0.0%. Besides, the “% OK For Fresh Pack Dormant + sprout up to 3 mm” value turned out to be 100.0% in the data set with Russet Burbank potatoes (setting [8]); 95.0% in the data set on Russet Burbank potatoes (setting [9]); 73.3% with Russet Burbank potatoes (setting [10]); 38.3% with Russet Burbank potatoes (setting [11]); 6.7% in the data set on Russet Burbank potatoes (setting [12]); 5.0% with Russet Burbank potatoes (setting [13]). The “% OK For Fresh Pack Dormant + sprout up to 3 mm” value is on record as 100.0% in the data set on Russet Burbank potatoes (10 ppm Fog, 132 days after harvest); 15.0% in the data set on Russet Burbank potatoes (10 ppm Fog, 161 days after harvest); 0.0% in the data set on Russet Burbank potatoes (10 ppm Fog, 191 days after harvest); 0.0% in the data set on Russet Burbank potatoes (10 ppm Fog, 223 days after harvest); 0.0% with Russet Burbank potatoes (10 ppm Fog, 252 days after harvest); 0.0% in the data set on Russet Burbank potatoes (10 ppm Fog, 283 days after harvest). Besides, the “% OK For Fresh Pack Dormant + sprout up to 3 mm” value in the data set on Russet Burbank potatoes (10 ppm Spray, 132 days after harvest) is listed as 100.0%; with Russet Burbank potatoes (10 ppm Spray, 161 days after harvest) it was 100.0%; with Russet Burbank potatoes (10 ppm Spray, 191 days after harvest), 90.0%; with Russet Burbank potatoes (10 ppm Spray, 223 days after harvest), 65.0%; in the data set with Russet Burbank potatoes (10 ppm Spray, 252 days after harvest), 20.0%; in the data set on Russet Burbank potatoes (10 ppm Spray, 283 days after harvest) it was 10.0%. For the same molecule, the “% OK for Fresh Pack Dormant + sprout up to 3 mm” value in the data set on Russet Norkotah potatoes (5 ppm Spray, 53 DAH) is given as 98.3%; in the data set with Russet Norkotah potatoes (5 ppm Spray, 85 DAH) it was 53.3%; with Russet Norkotah potatoes (5 ppm Spray, 107 DAH) it was 1.7%; in the data set on Russet Norkotah potatoes (10 ppm Spray, 53 DAH) it was 100.0%; in the data set on Russet Norkotah potatoes (10 ppm Spray, 85 DAH), 71.7%; with Russet Norkotah potatoes (10 ppm Spray, 107 DAH), 25.0%. For the same molecule, the “stability when exposed to heat” value in data set [1] is listed as “break down rapidly when exposed to heat”.

`CCCCC(CC)COC(=O)COc1ccc(Cl)cc1Cl` (stereo not shown) [2,4 D LV, Isooctyl (2-ethylhexyl) ester of 2,4-Dichlorphenoxyacetic acid]: the “% OK For Fresh Pack Dormant + sprout up to 3 mm” value is on record as 96.7% with Russet Burbank potatoes (setting [8]); 30.0% in the data set with Russet Burbank potatoes (setting [9]); 8.3% in the data set on Russet Burbank potatoes (setting [10]); 0.0% in the data set on Russet Burbank potatoes (setting [11]); 0.0% in the data set with Russet Burbank potatoes (setting [12]); 0.0% in the data set on Russet Burbank potatoes (setting [13]).

Consider “Diisopropylnaphthalene [DIPN, reference compound]”, for which the “% OK For Fresh Pack Dormant + sprout up to 3 mm” value in the data set on Russet Burbank potatoes (setting [14]) is 56.7%; in the data set with Russet Burbank potatoes (setting [15]) it was 15%; in the data set on Russet Burbank potatoes (setting [16]), 0%; in the data set with Russet Burbank potatoes (setting [17]), 0%; in the data set with Russet Burbank potatoes (setting [18]), 0%; in the data set on Russet Burbank potatoes (setting [19]), 0%.

On to `CC(C)OC(=O)Nc1cccc(Cl)c1` [CIPC 98A, isopropyl 3-chlorophenylcarbamate, reference compound], for which the “% OK For Fresh Pack Dormant + sprout up to 3 mm” value was found to be 100.0% in the data set with Russet Burbank potatoes (setting [14]); 26.7% in the data set on Russet Burbank potatoes (setting [15]); 0.0% with Russet Burbank potatoes (setting [16]); 0.0% in the data set with Russet Burbank potatoes (setting [17]); 0.0% in the data set on Russet Burbank potatoes (setting [18]); 0.0% in the data set with Russet Burbank potatoes (setting [19]). For the same molecule, the “% OK For Fresh Pack Dormant + sprout up to 3 mm” value with Russet Burbank potatoes (16.6 ppm Fog, 132 days after harvest) is recorded as 100.0%; in the data set with Russet Burbank potatoes (16.6 ppm Fog, 161 days after harvest), 26.7%; with Russet Burbank potatoes (16.6 ppm Fog, 191 days after harvest), 0.0%; with Russet Burbank potatoes (16.6 ppm Fog, 223 days after harvest), 0.0%; in the data set with Russet Burbank potatoes (16.6 ppm Fog, 252 days after harvest), 0.0%; in the data set on Russet Burbank potatoes (16.6 ppm Fog, 283 days after harvest), 0.0%. The “% OK for Fresh Pack Dormant + sprout up to 3 mm” value with Russet Norkotah potatoes (16.6 ppm Fog, 53 DAH) is recorded as 100.0%; with Russet Norkotah potatoes (16.6 ppm Fog, 85 DAH) it was 86.7%; in the data set on Russet Norkotah potatoes (16.6 ppm Fog, 107 DAH), 86.7%.

Consider `O=C(O)COc1ccc(Cl)cc1Cl` [2,4 D Acid, (2,4-(dichlorophenoxy)-acetic acid, reference compound], for which the “% OK For Fresh Pack Dormant + sprout up to 3 mm” value in the data set on Russet Burbank potatoes (setting [2]) worked out at 100.0%; in the data set with Russet Burbank potatoes (setting [3]), 16.7%; with Russet Burbank potatoes (setting [4]), 0.0%; with Russet Burbank potatoes (setting [5]), 0.0%; in the data set on Russet Burbank potatoes (setting [6]) it was 0.0%; with Russet Burbank potatoes (setting [7]), 0.0%.
